Molecules are shown by their SMILES.

One series concerns Miapaca2/18.2. Description: Efficacy against subcutaneous xenograft tumors of human pancreatic cancer Miapaca2/18.2 in mice. It is filed as in vivo. Here is the method: NOD-Scid mice (7 weeks old, female) were purchased from Shanghai Lingchang Biotechnology Co., Ltd. Each mouse was subcutaneously inoculated with 1 × 10^7 Miapaca2/18.2 cells. When tumor volume reached 60 mm^3 to 150 mm^3, the mice were grouped according to tumor volume and then the medicaments were administered intraperitoneally (IP) at an injection volume of 0.1 mL per 10 g of body weight.

The test system of a further series is KATO III/18.2. Description: Efficacy against subcutaneous xenograft tumors of human gastric cancer KATO III/18.2 in mice. It is filed as in vivo, NOD-Scid mice. How it is done: NOD-Scid mice (7 weeks old, female) were purchased from Shanghai Lingchang Biotechnology Co., Ltd. Each mouse was subcutaneously inoculated with 1 × 10^7 KATO III/18.2 cells. When tumor volume reached 60 mm^3 to 150 mm^3, the mice were grouped according to tumor volume, and then the medicaments were administered intraperitoneally (IP) at an injection volume of 0.1 mL per 10 g of body weight.
A general note: A xenograft is tissue or cells of one species grown in another, often human tumour cells in immunodeficient mice.

`Nc1ccn([C@@H]2O[C@H](CO)[C@@H](O)C2(F)F)c(=O)n1` [gemcitabine] yielded a tumor growth inhibition with Miapaca2/18.2 (Day 14 (first dose Day 0), M5 monoclonal antibody or Human IgG1 10 mg/kg IP BIW 4 times, gemcitabine 75 mg/kg IP Q4D 2 times) of 53%. In the series on Miapaca2/18.2 (mice, on Day 7), this compound returned a maximum weight loss of 9.2%. For the same compound, the mice died entry with Miapaca2/18.2 (ten mice per group) was “one out of ten”.

Take `O=C1[O][Pt]2([NH][C@@H]3CCCC[C@H]3[NH]2)[O]C1=O` [oxaliplatin]: in the series on KATO III/18.2 (Day 23 (first dose Day 0), M5 monoclonal antibody or Human IgG1 10 mg/kg IP BIW 6 times, oxaliplatin 8 mg/kg IP Q4D 3 times), the tumor growth inhibition was 31%. In the series on KATO III/18.2 (mice, on Day 10), this compound came in with a maximum weight losses of 5.5%.

The values are drawn from patent EP4796126A1, “COMBINATION OF CLDN18_2 ANTIBODY AND CHEMOTHERAPEUTIC DRUG AND USE THEREOF” (Jiangsu Aosaikang Biopharmaceutical Co., Ltd., priority 2023, dated 2025).
